According to the supplement of paper PMC10307832:

Columns and labels:
Assay in all cases: relative viability (nuclei count vs DMSO), 5 days (fraction); higher = more cells survive
[1] = compound: CS(=O)(=O)c1ccc(C(=O)Nc2ccc(Cl)c(-c3ccccn3)c2)c(Cl)c1 [Vismodegib] + CC1(C)CCC(c2ccc(Cl)cc2)=C(CN2CCN(c3ccc(C(=O)NS(=O)(=O)c4ccc(N[C@H](CCN5CCOCC5)CSc5ccccc5)c(S(=O)(=O)C(F)(F)F)c4)cc3)CC2)C1 [Navitoclax] (partner 0.5 µM)
Summary of the method: (§1)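 Cells from lung cancer lines were seeded into 1536-well plates and, one day later, dosed by pin tool. Treatments were either a single drug or a fixed dose of an anchor drug with five library-drug doses (not always all listed) in √10 steps. After 5 days, nuclei were stained in a one-step fixation (final 0.05% Triton X-100, 1% formaldehyde, 1 ug/ml Hoechst) and counted on 4× images, and relative viability is the treated-to-vehicle nuclei ratio, as the median of duplicate plates.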

[2] = compound: CS(=O)(=O)c1ccc(-c2cnc(N)c(C(=O)Nc3ccccc3)n2)cc1 [VE-821] + Cc1nc(Nc2ncc(C(=O)Nc3c(C)cccc3Cl)s2)cc(N2CCN(CCO)CC2)n1 [Dasatinib] (partner 0.075 µM)
Summary of the method: as §1

[3] = compound: CS(=O)(=O)c1ccc(C(=O)Nc2ccc(Cl)c(-c3ccccn3)c2)c(Cl)c1 [Vismodegib] + CC(=O)c1c(C)c2cnc(Nc3ccc(N4CCNCC4)cn3)nc2n(C2CCCC2)c1=O [Palbociclib] (partner 0.5 µM)
Summary of the method: as §1

[4] = compound: N#CC[C@H](C1CCCC1)n1cc(-c2ncnc3[nH]ccc23)cn1 [Ruxolitinib] + NC(=O)Nc1cc(-c2cccc(F)c2)sc1C(=O)N[C@H]1CCCNC1 [AZD7762] (partner 0.2 µM)
Summary of the method: as §1

Row | Cell Line | relative viability ([1]; first compound 0.08 µM) | relative viability ([1]; first compound 0.253 µM) | relative viability ([1]; first compound 0.8 µM) | relative viability ([1]; first compound 2.53 µM) | relative viability ([1]; first compound 8 µM) | relative viability ([2]; first compound 0.08 µM) | relative viability ([2]; first compound 0.253 µM) | relative viability ([2]; first compound 0.8 µM) | relative viability ([2]; first compound 2.53 µM) | relative viability ([2]; first compound 8 µM) | relative viability ([3]; first compound 0.08 µM) | relative viability ([3]; first compound 0.253 µM) | relative viability ([3]; first compound 0.8 µM) | relative viability ([3]; first compound 2.53 µM) | relative viability ([3]; first compound 8 µM) | relative viability ([4]; first compound 0.253 µM) | relative viability ([4]; first compound 0.8 µM) | relative viability ([4]; first compound 2.53 µM) | relative viability ([4]; first compound 8 µM) | relative viability ([4]; first compound 0.08 µM)
1 | A549 | 1.02 | 1.13 | 1.28 | 1.18 | 1.23 |  |  |  |  |  |  |  |  |  |  |  |  |  |  | 
2 | ABC-1 |  |  |  |  |  | 0.554 | 0.519 | 0.614 | 0.517 | 0.439 | 0.667 | 1.01 | 0.542 | 0.618 | 0.73 | 1.07 | 0.834 | 0.743 | 0.928 | 
3 | COR-L23 | 1.02 | 1.03 | 0.959 | 0.951 | 1.14 | 0.678 | 0.48 | 0.545 | 0.536 | 0.395 | 0.337 | 0.33 | 0.344 | 0.289 | 0.312 |  |  |  |  | 
4 | COR-L 105 | 0.733 | 0.721 | 1.02 | 0.777 | 0.781 | 0.327 | 0.313 | 0.276 | 0.344 | 0.255 | 0.425 | 0.415 | 0.369 | 0.405 | 0.388 |  |  |  |  | 
5 | Calu-6 | 0.712 | 0.781 | 0.817 | 0.877 | 0.845 |  |  |  |  |  |  |  |  |  |  |  |  |  |  | 
6 | EBC-1 | 0.412 | 0.39 | 0.436 | 0.397 | 0.643 |  |  |  |  |  |  |  |  |  |  |  |  |  |  | 
7 | IA-LM | 0.912 | 0.725 | 0.908 | 0.82 | 0.868 |  |  |  |  |  |  |  |  |  |  |  |  |  |  | 
8 | LCLC-103H |  |  |  |  |  | 0.418 | 0.525 | 0.31 | 0.474 | 0.513 | 0.473 | 0.475 | 0.481 | 0.517 | 0.526 | 0.783 | 0.798 | 0.836 | 0.614 | 0.829
9 | NCI-H358 |  |  |  |  |  | 0.157 | 0.156 | 0.183 | 0.209 | 0.213 | 0.141 | 0.181 | 0.138 | 0.135 | 0.16 | 0.653 | 0.504 | 0.404 | 0.445 | 0.5
10 | NCI-H520 | 1.06 | 1.12 | 0.941 | 1.12 | 1.09 | 0.232 | 0.23 | 0.166 | 0.298 | 0.165 | 0.182 | 0.224 | 0.254 | 0.198 | 0.288 |  |  |  |  | 
11 | NCI-H522 |  |  |  |  |  | 0.77 | 0.918 | 0.704 | 0.902 | 0.825 | 1.16 | 0.985 | 0.894 | 0.923 | 1.03 | 0.716 | 1.01 | 0.794 | 0.803 | 0.948
12 | NCI-H650 |  |  |  |  |  | 0.501 | 0.445 | 0.465 | 0.528 | 0.426 | 0.359 | 0.323 | 0.309 | 0.338 | 0.341 | 1.06 | 1.01 | 0.993 | 0.707 | 0.951
13 | NCI-H661 |  |  |  |  |  | 0.934 | 0.668 | 0.884 | 0.865 | 0.434 | 0.446 | 0.432 | 0.439 | 0.39 | 0.405 |  |  |  |  | 
14 | NCI-H1299 | 1.03 | 1 | 1.09 | 0.935 | 1.01 |  |  |  |  |  |  |  |  |  |  |  |  |  |  | 
15 | NCI-H1563 |  |  |  |  |  | 0.449 | 0.483 | 0.405 | 0.456 | 0.453 |  |  |  |  |  |  |  |  |  | 
16 | NCI-H1623 |  |  |  |  |  | 0.565 | 0.53 | 0.518 | 0.525 | 0.606 |  |  |  |  |  |  |  |  |  | 
17 | NCI-H1648 |  |  |  |  |  |  |  |  |  |  | 0.282 | 0.246 | 0.214 | 0.274 | 0.241 | 0.817 | 0.658 | 0.914 | 1.15 | 0.739
18 | NCI-H1650 | 1.14 | 1.27 | 1.2 | 1.17 | 1.14 | 0.312 | 0.322 | 0.28 | 0.255 | 0.211 | 0.365 | 0.363 | 0.305 | 0.304 | 0.366 |  |  |  |  | 
19 | NCI-H2009 | 1.15 | 1.12 | 1.2 | 1.17 | 1.17 | 0.332 | 0.263 | 0.212 | 0.26 | 0.16 | 0.208 | 0.238 | 0.188 | 0.252 | 0.276 |  |  |  |  | 
20 | NCI-H2023 | 0.937 | 1.09 | 1.08 | 0.995 | 0.96 | 0.681 | 0.432 | 0.458 | 0.373 | 0.13 | 0.321 | 0.318 | 0.374 | 0.345 | 0.4 |  |  |  |  | 
21 | NCI-H2228 | 0.838 | 1.1 | 0.932 | 0.741 | 0.901 | 0.602 | 0.457 | 0.621 | 0.528 | 0.31 | 0.927 | 0.74 | 0.761 | 0.627 | 0.955 |  |  |  |  | 
22 | SK-LU-1 | 0.831 | 0.695 | 0.834 | 0.736 | 0.936 | 0.17 | 0.19 | 0.163 | 0.16 | 0.12 | 0.407 | 0.416 | 0.416 | 0.376 | 0.384 |  |  |  |  | 
23 | SK-MES-1 | 1.23 | 1.22 | 1.23 | 1.15 | 1.17 | 0.389 | 0.379 | 0.274 | 0.332 | 0.199 | 0.289 | 0.306 | 0.349 | 0.351 | 0.364 |  |  |  |  | 
24 | SW 1573 | 0.808 | 0.94 | 0.886 |  | 1.04 | 0.49 | 0.573 | 0.551 | 0.503 | 0.218 | 0.395 | 0.398 | 0.363 | 0.406 | 0.451 |  |  |  |  | 
